Reference: patent publication US10053431B2, “Tetrahydro-benzodiazepinones” (priority 2013, dated 2018)
Structures can show the parent of a compound that is named as a salt. Where two headings read alike, the source gives them in different places.

Columns and labels:
[1] = biological target: BIR3 domain of XIAP (Homo sapiens (Human), UniProt P98170); assay: TR-FRET assay for BIR3 (inhibition of binding of XIAP BIR3 domain to SMAC-derived Peptide A)
[2] = biological target: BIR2 domain of XIAP (Homo sapiens (Human), UniProt P98170, C202A/C213G); assay: TR-FRET assay for BIR2 (inhibition of binding of XIAP BIR2 domain to SMAC-derived Peptide A); details: 6x His-tagged BIR2 domain (aa 124-240 of XIAP) 10 nM, Peptide A 20 nM, TR-FRET; read-out: IC50 BIR2
BIR2 domain of XIAP, sequence (P98170 124-240 with tags or gaps C202A/C213G limits assumed): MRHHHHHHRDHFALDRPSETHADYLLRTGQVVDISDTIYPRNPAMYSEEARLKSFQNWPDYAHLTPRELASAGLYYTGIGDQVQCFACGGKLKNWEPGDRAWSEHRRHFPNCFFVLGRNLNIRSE

[3] = 6x His-tagged BIR3 domain (aa 241-356 of XIAP) 10 nM, Peptide A 20 nM, TR-FRET

BIR3 domain of XIAP, sequence (P98170 241-356 with tags or gaps limits assumed): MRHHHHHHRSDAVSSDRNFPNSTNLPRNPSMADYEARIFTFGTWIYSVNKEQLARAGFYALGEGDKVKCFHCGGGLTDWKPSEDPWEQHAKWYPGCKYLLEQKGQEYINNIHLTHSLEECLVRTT

Structure (SMILES)	IC50 [1, 3] [µM]	IC50 [2] [µM]	IC50 [1] [µM]
CCN[C@@H](C)C(=O)N[C@H]1CN(C(=O)CS(C)(=O)=O)c2ccccc2N(Cc2c(OC)ccc3cc(Br)ccc23)C1=O [Example 149, (S)-N-((S)-1-((6-bromo-2-methoxynaphthalen-1-yl)methyl)-5-(2-(methylsulfonyl)acetyl)-2-oxo-2,3,4,5-tetrahydro-1H-benzo[b][1,4]diazepin-3-yl)-2-(ethylamino)propanamide]	> 54.8	0.183	–
CN[C@@H](C)C(=O)N[C@H]1CN(C(=O)c2ccccc2[C@H](C)O)c2ccccc2N(Cc2c(C)ccc3ccccc23)C1=O (stereo in doubt) [Example 148, (2S)-N-[(3S)-1-[2-[(1S)-1-hydroxyethyl]benzoyl]-5-[(2-methylnaphthalen-1-yl)methyl]-4-oxo-2,3-dihydro-1,5-benzodiazepin-3-yl]-2-(methylamino)propanamide;(2S)-N-[(3S)-1-[2-[(1R)-1-hydroxyethyl]benzoyl]-5-[(2-methylnaphthalen-1-yl)methyl]-4-oxo-2,3-dihydro-1,5-benzodiazepin-3-yl]-2-(methylamino)propanamide]	> 54.8	0.0401	–
CN[C@@H](C)C(=O)N[C@H]1CN(C(=O)c2ccncc2)c2cc(C#N)ccc2N(Cc2nn(-c3ccccc3C#N)c3ccccc23)C1=O [Example 174, (S)-N-((S)-7-cyano-1-((1-(2-cyanophenyl)-1H-indazol-3-yl)methyl)-5-isonicotinoyl-2-oxo-2,3,4,5-tetrahydro-1H-benzo[b][1,4]diazepin-3-yl)-2-(methylamino)propanamide dihydrochloride]	> 54.8	0.0224	–
CN[C@@H](C)C(=O)N[C@H]1CN(C(=O)CCC(=O)O)c2ccccc2N(Cc2c(C)ccc3ccccc23)C1=O [Example 16, 4-[(S)-3-((S)-2-Methylamino-propionylamino)-5-(2-methyl-naphthalen-1-ylmethyl)-4-oxo-2,3,4,5-tetrahydro-benzo[b][1,4]diazepin-1-yl]-4-oxo-butyric acid hydrochloride]	> 54.8	0.126	–
CN[C@@H](C)C(=O)N[C@H]1CN(C(=O)CCCCC(=O)OC)c2ccccc2N(Cc2c(C)ccc3ccccc23)C1=O [Example 13e]	> 54.8	0.308	–
CN[C@@H](C)C(=O)N[C@H]1CN(C(=O)c2ccc(C(C)=O)cc2)c2ccccc2N(Cc2c(OC)ccc3cc(C(=O)OC)ccc23)C1=O [Example 43, 5-[(S)-5-(4-Acetyl-benzoyl)-3-((S)-2-methylamino-propionylamino)-2-oxo-2,3,4,5-tetrahydro-benzo[b][1,4]diazepin-1-ylmethyl]-6-methoxy-naphthalen-2-carboxylic acid methyl ester hydrochloride]	44.1	0.057	–
CNC(=O)N1C[C@H](NC(=O)[C@H](C)NC)C(=O)N(Cc2c(C)ccc3ccccc23)c2ccccc21 [Example 17, (S)-3-((S)-2-Methylamino-propionylamino)-5-(2-methyl-naphthalen-1-ylmethyl)-4-oxo-2,3,4,5-tetrahydro-benzo[b][1,4]diazepine-1-carboxylic acid methylamide hydrochloride]	–	1.43	> 54.8

More lines, in order of falling IC50 [1, 3], values ahead:

IC50 [1, 3] [µM]	IC50 [2] [µM]	Structure (SMILES)	IC50 [1] [µM]
42.8	0.058	CN[C@@H](C)C(=O)N[C@H]1CN2C(=O)CCCNC(=O)c3ccc4c(c(OC)ccc4c3)CN(C1=O)c1ccccc12 [Example 51, Cyclic-5-[(S)-5-(4-Amino-butyryl)-3-((S)-2-methylamino-propionylamino)-2-oxo-2,3,4,5-tetrahydro-benzo[b][1,4]diazepin-1-ylmethyl]-6-methoxy-naphthalene-2-carboxylic amide hydrochloride]	–
38.8	0.071	CN[C@@H](C)C(=O)N[C@H]1CN(C(=O)Cc2nnn[nH]2)c2ccccc2N(Cc2c(C)ccc3ccccc23)C1=O [Example 96b]	–
33.2	0.005	CN[C@@H](C)C(=O)N[C@H]1CN(C(=O)c2ccc(NC(C)=O)cc2)c2ccccc2N(Cc2c(OC)ccc3cc(Br)ccc23)C1=O [Example 76d]	–
